The values below come from patent US20230279025A1, “KRAS G12D INHIBITORS” (Mirati Therapeutics, Inc., priority 2020, published 2023).

The IC50 is the point on the concentration scale where inhibition reaches its midpoint.

Each structure is given as a SMILES string. Counter-ions that a name gives are not always drawn.

For the assay, the target named is KRas G12D (Homo sapiens (Human), UniProt P01116, G12D). The assay can be described thus: KRas G12D Binding Assay (TR-FRET displacement of Cy5 labelled tracer). The settings on record: GDP-loaded KRAS G12D (amino acids 1:169), 60 minute incubation at 22° C. The method, then:
After a 60 minute incubation at 22° C., the reaction was measured using a PerkinElmer EnVision multimode plate reader via TR-FRET dual wavelength detection, and the percent of control (POC) calculated using a ratiometric emission factor. […] The POC values were fit to a 4-parameter logistic curve and the IC50 value was determined as the concentration where the curve crosses 50 POC.
ND stands for “not determined.”
On the technique in general: TR-FRET usually uses a lanthanide donor and a delayed reading to cut background.

Sequence of KRas G12D (P01116 other isoform, or with tags, fused parts or gaps G12D): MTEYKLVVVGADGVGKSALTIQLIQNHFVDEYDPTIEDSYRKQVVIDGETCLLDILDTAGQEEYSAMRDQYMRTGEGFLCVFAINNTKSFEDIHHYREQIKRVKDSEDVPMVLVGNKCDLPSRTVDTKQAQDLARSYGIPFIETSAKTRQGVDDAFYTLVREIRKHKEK

As to `O[C@@H]1C[C@@H]2CN(c3nc(OCCC(F)(F)F)nc4c(F)c(-c5cccc6cccc(Cl)c56)ncc34)C[C@H]1N2` [Example 155, (1R,5R,6R)-3-(7-(8-chloronaphthalen-1-yl)-8-fluoro-2-(3,3,3-trifluoropropoxy)pyrido[4,3-d]pyrimidin-4-yl)-3,8-diazabicyclo[3.2.1]octan-6-ol], the IC50 worked out at 3420 nM.

In turn, `Fc1c(-c2cccc3cccc(Cl)c23)ncc2c(N3CC4CCC(C3)N4)nc(OCC34CCCN3C[C@H](F)C4)nc12` (stereo partly drawn) [Example 226, 4-((1R,5S)-3,8-diazabicyclo[3.2.1]octan-3-yl)-7-(8-chloronaphthalen-1-yl)-8-fluoro-2-((2-fluorotetrahydro-1H-pyrrolizin-7a(5H)-yl)methoxy)pyrido[4,3-d]pyrimidine bis-hydrochloride] yielded an IC50 of 25.9 nM.

`CCc1c(Cl)cccc1-c1ncc2c(N3C[C@H]4CC[C@@H](C3)N4)nc(OCC34CCCN3CCC4)nc2c1F` [Example 312, 4-((1R,5S)-3,8-diazabicyclo[3.2.1]octan-3-yl)-7-(3-chloro-2-ethylphenyl)-8-fluoro-2-((hexahydro-1H-pyrrolizin-7a-yl)methoxy)pyrido[4,3-d]pyrimidine] had an IC50 of 9 nM.

With `CCc1cccc2cccc(-c3ncc4c(N5C[C@H]6CC[C@@H](C5)N6)nc(OCC56CCCN5CCC6)nc4c3F)c12` [Example 187, 4-((1R,5S)-3,8-diazabicyclo[3.2.1]octan-3-yl)-7-(8-ethylnaphthalen-1-yl)-8-fluoro-2-((tetrahydro-1H-pyrrolizin-7a(5H)-yl)methoxy)pyrido[4,3-d]pyrimidine], the IC50 is 1.7 nM.

Compound `CN1C[C@H](NC(=O)c2cccc(S(=O)(=O)F)c2)C[C@H]1COc1nc(N2C[C@H]3CC[C@@H](C2)N3)c2cnc(-c3cccc4cccc(Cl)c34)c(F)c2n1` [Example 211, 3-(((3R,5S)-5-(((4-((1R,5S)-3,8-diazabicyclo[3.2.1]octan-3-yl)-7-(8-chloronaphthalen-1-yl)-8-fluoropyrido[4,3-d]pyrimidin-2-yl)oxy)methyl)-1-methylpyrrolidin-3-yl)carbamoyl)benzenesulfonyl fluoride tris(2,2,2-trifluoroacetate)] had an IC50 of 212 nM.

`Fc1ccc2cccc(-c3ncc4c(N5C[C@H]6CC[C@@H](C5)N6)nc(OCC56CCCN5CCC6)nc4c3F)c2c1F` [Example 464, 4-((1R,5S)-3,8-diazabicyclo[3.2.1]octan-3-yl)-7-(7,8-difluoronaphthalen-1-yl)-8-fluoro-2-((hexahydro-1H-pyrrolizin-7a-yl)methoxy)pyrido[4,3-d]pyrimidine] gave an IC50 of 0.007 nM.

The compound `N#Cc1ccccc1-c1ncc2c(N3CC4CCC(C3)N4)nc(OC[C@@]34CCCN3C[C@H](F)C4)nc2c1F` (stereo in doubt) [Example 409, 2-(4-((1R,5S)-3,8-diazabicyclo[3.2.1]octan-3-yl)-8-fluoro-2-((2-fluorotetrahydro-1H-pyrrolizin-7a(5H)-yl)methoxy)pyrido[4,3-d]pyrimidin-7-yl)benzonitrile] showed an IC50 of 2230 nM.

`Cc1c(F)cccc1-c1ncc2c(N3C[C@H]4CC[C@@H](C3)N4)nc(OCC34CCCN3CCC4)nc2c1F` [Example 294, 4-((1R,5S)-3,8-diazabicyclo[3.2.1]octan-3-yl)-8-fluoro-7-(3-fluoro-2-methylphenyl)-2-((hexahydro-1H-pyrrolizin-7a-yl)methoxy)pyrido[4,3-d]pyrimidine] showed an IC50 of 620 nM.

Take `Fc1c(-c2cccc3cccc(CC(F)F)c23)ncc2c(N3C[C@H]4CC[C@@H](C3)N4)nc(OCC34CCCN3CCC4)nc12` [Example 247, 4-((1R,5S)-3,8-diazabicyclo[3.2.1]octan-3-yl)-7-(8-(2,2-difluoroethyl)naphthalen-1-yl)-8-fluoro-2-((hexahydro-1H-pyrrolizin-7a-yl)methoxy)pyrido[4,3-d]pyrimidine]: the IC50 came to 12.6 nM.
